Measurements reported in the NIST ThermoML archive (doi:10.1021/je900525f).

Assay: xn = mol fraction of the nth substance listed
Settings: 101 kPa, Liquid; for viscosity: Capillary tube (Ostwald / Ubbelohde) method; for speed of sound: Pulse-echo method

N#CCc1ccccc1 [benzeneacetonitrile] + CCOC(C)=O
Settings | mass density, 303.15 K [kg/m3] | mass density, 308.15 K [kg/m3] | mass density, 313.15 K [kg/m3] | speed of sound, 303.15 K [m/s] | speed of sound, 308.15 K [m/s] | speed of sound, 313.15 K [m/s] | viscosity, 303.15 K [mPa·s] | viscosity, 308.15 K [mPa·s] | viscosity, 313.15 K [mPa·s]
x1 = 0.0198 | 892.4 | 887.4 | 880.8 | 1125.1 | 1109.3 | 1104.3 | 0.396 | 0.376 | 0.357
x1 = 0.1279 | 910.4 | 905.4 | 899.6 | 1173.8 | 1164.8 | 1159.7 | 0.483 | 0.458 | 0.431
x1 = 0.2425 | 926.8 | 922.7 | 916.9 | 1230.8 | 1218.2 | 1209.3 | 0.591 | 0.556 | 0.524
x1 = 0.3589 | 942.3 | 938 | 933.4 | 1286.7 | 1278.4 | 1263.6 | 0.714 | 0.668 | 0.627
x1 = 0.461 | 955.3 | 950.9 | 946.5 | 1326.1 | 1312.5 | 1303.1 | 0.839 | 0.781 | 0.733
x1 = 0.5665 | 967.5 | 963.3 | 958.5 | 1366.7 | 1355.1 | 1344.9 | 0.984 | 0.914 | 0.856
x1 = 0.6978 | 981.5 | 978.1 | 972.4 | 1417.8 | 1410.8 | 1400 | 1.18 | 1.092 | 1.017
x1 = 0.8328 | 994.9 | 991.8 | 985.2 | 1464.3 | 1461.3 | 1446.8 | 1.416 | 1.307 | 1.209
x1 = 0.9745 | 1006.5 | 1002.6 | 998.1 | 1508.3 | 1500.5 | 1490 | 1.695 | 1.554 | 1.43
x1 = 1 | 1008.8 | 1004.1 | 999.5 | 1519.2 | 1512.9 | 1503.4 | 1.761 | 1.602 | 1.489
